Tests used:
[1] = system: metastatic cell lines; assay: Colony formation assay; type: cell-based, human; conditions: metastatic versus primary cell lines; data not shown
Experimental: Human uveal melanoma cells were seeded onto 6-well plates. The cells were subsequently placed in a 37° C., 5% C02 incubator. Colonies of cells were grown before being stained with 0.04% crystal violet/2% ethanol in PBS for 30 min. Photographs of the stained colonies were captured. The colony formation assay was performed in duplicate.

[2] = system: Mel270 uveal melanoma cells; assay: Mitochondrial membrane potential by TMRE staining; type: cell-based, human; conditions: Mel270; ABT-263 3 μM or 5 μM, 48 h
Experimental: (§1) FIG. 1. ABT-263 induces apoptosis of uveal melanoma cells. Detection of the mitochondrial membrane potential using TMRE staining in Mel270 and OMM1 uveal melanoma cells exposed to ABT-263 3 μM or 5 μM for 48 h in the absence or presence of QVD-OPh 20 μM.

[3] = system: OMM1 uveal melanoma cells; assay: Mitochondrial membrane potential by TMRE staining; type: cell-based, human; conditions: OMM1; ABT-263 3 μM or 5 μM, 48 h
Experimental: as §1

[4] = system: PARP, caspase 9 and caspase 3 in primary and metastatic uveal melanoma cells; assay: Western blot of PARP and caspases; type: cell-based, human
[5] = system: BCL-2 family members in metastatic OMM1 cells; assay: Protein immunoblot of BCL-2 family members; type: cell-based, human
Experimental: (§2) Western blotting was performed as previously described 25,26. Briefly, cell lysates (30 μg) were separated using SDS-PAGE, transferred onto a PVDF membrane and subsequently exposed to the appropriate antibodies, anti-BCL2 (ms-123-PO) was from neomarker, anti-caspase 3 (#610323) was from BD, anti-BAX (#8429) was from sigma, anti-PARP (#9542), anti-BCL-XL (#2762), anti-caspase 9 (#9502) and anti-PUMA (#4976) were from Cell Signaling Technology Inc, anti-MCL1 (#sc-819), anti-NOXA (#56169), and anti-HSP90 (#sc-13119) were from Santa Cruz biotechnology. The proteins were visualized using the ECL system (Amersham).

[6] = system: NOXA in primary cells; assay: Protein immunoblot of BCL-2 family members; type: cell-based, human; conditions: 24 h of treatment
Experimental: as §2

[7] = system: Mel270 xenografts; assay: Subcutaneous tumor xenograft; type: in vivo, athymic nude mice; conditions: established Mel270 xenografts; 50 mg/kg intraperitoneal
Experimental: (§3) FIG. 2. Effect of ABT-263 on tumor growth in vivo effects. (A) Primary Mel270 and (B) metastatic OMM1 uveal melanoma cells were subcutaneously engrafted into athymic nude mice. Once the tumours reached 100 mm3, mice were treated daily with ABT-263. The arrow indicates the start of the treatment. The growth tumor curves were determined by measuring the tumor volume using the equation V=(L Å˜W2)/2. […] (C-D) Sub-cutaneous tumor weight from control (Ct) and ABT-263-treated mice is shown. Animal experiments were performed in accordance with French law and approved by a local institutional ethical committee. The animals were maintained in a temperature-controlled facility (22° C.) on a 12-h light/dark cycle and provided free access to food (standard laboratory chow diet from UAR, Epinay-S/Orge, France). Human Mel270 uvealmelanoma cells were subcutaneously inoculated into 8-week-old female, immune-deficient, athymic, nude FOXN1nu mice (Harlan Laboratory). When the tumors became palpable (0.1-0.2 cm3), the mice received an intraperitoneal injection of ABT-263 (50 mg/kg), dissolved in 10% DMSO 6 times per week. Control mice were injected with DMSO alone. The growth tumor curves were determined after measuring the tumor volume using the equation V=(L×W2)/2. At the end of the experiment, the mice were euthanized by cervical dislocation.

[8] = system: metastatic OMM1 xenografts; assay: Subcutaneous tumor xenograft; type: in vivo, athymic nude mice
Experimental: as §3

[9] = Body weight and blood biochemical analysis of xenografted mice; type: in vivo
Experimental: FIG. 3. ABT-263 reduces tumor growth in vivo. (A) Primary 92.1 uveal melanoma cells were subcutaneously engrafted into athymic nude mice. Once the tumours reached 100 mm3, mice were treated daily with ABT-263. The arrow indicates the start of the treatment. The growth tumor curves were determined by measuring the tumor volume using the equation V=(L Å˜W2)/2. […] (B) Sub-cutaneous tumor weight from control (Ct) and ABT-263-treated mice is shown. (C) Blood biochemical analysis of mice xenografted with OMM1 cells. Serum activity of alanine transaminase (ALT) and aspartate transaminase (AST) was measured in control and ABT-263 by spectrophotometric methods after the end of treatment. Data are presented as mean±SD (n=5 per group). Animal experiments were performed in accordance with French law and approved by a local institutional ethical committee. The animals were maintained in a temperature-controlled facility (22° C.) on a 12-h light/dark cycle and provided free access to food (standard laboratory chow diet from UAR, Epinay-S/Orge, France). Human Mel270 uvealmelanoma cells were subcutaneously inoculated into 8-week-old female, immune-deficient, athymic, nude FOXN1nu mice (Harlan Laboratory). When the tumors became palpable (0.1-0.2 cm3), the mice received an intraperitoneal injection of ABT-263 (50 mg/kg), dissolved in 10% DMSO 6 times per week. Control mice were injected with DMSO alone. The growth tumor curves were determined after measuring the tumor volume using the equation V=(L×W2)/2. At the end of the experiment, the mice were euthanized by cervical dislocation.

[10] = system: ER stress molecules in Mel270 cells; assay: Western blot of ER stress molecules; type: cell-based, human
Experimental: Western blot of ER stress molecules in Mel270 cells treated with ABT-263 5 μM in the absence or presence of QVD-OPh 20 μM. Representative western blot are shown.
as §2

[11] = system: CDK4, p27 and p21 in Mel270 cells; assay: Western blot of cell cycle proteins; type: cell-based, human
Experimental: as §2, with “(Amersham). The western blots shown are representative of at least 3 independent experiments.” for “(Amersham).”

[12] = OMM1-xenografted mice, after end of treatment

SMILES: CC1(C)CCC(c2ccc(Cl)cc2)=C(CN2CCN(c3ccc(C(=O)NS(=O)(=O)c4ccc(N[C@H](CCN5CCOCC5)CSc5ccccc5)c(S(=O)(=O)C(F)(F)F)c4)cc3)CC2)C1 [ABT-263, 4-[4-[[2-(4-chlorophenyl)-5,5-dimethyl-1-cyclohexen-1-yl]methyl]-1-piperazinyl]-N-[[4-[[(1R)-3-(4-morpholinyl)-1-[(phenylthio)methyl]propyl]amino]-3-[(trifluoromethyl)sulfonyl]phenyl]sulfonyl]-benzamide]
- long-term growth inhibitory activity (colony formation) [1]: more sensitive
- mitochondrial membrane potential ΔΨm [2]: dose-dependently reduced
- mitochondrial membrane potential ΔΨm [3]: dose-dependently reduced
- cleavage of PARP, caspase 9 and caspase 3 ([4]; primary and metastatic cells): dose-dependent cleavage
- full-length PARP protein and caspase 3 zymogen ([4]; time course, data not shown): time-dependent disappearance
- BCL2 level ([5]; cell line not given): no change
- expression of BCL-xL, MCL1, PUMA, BAX ([5]; metastatic OMM1 cells only): reduced expression
- change in BCL-2 family proteins [6]: increase in pro-apoptotic NOXA level
- tumor growth [7]: partially effective
- excised tumor weight versus control group ([8]; end of experiment): weighed significantly less
- tumor growth ([8]; metastatic OMM1 xenografts, in some mice total tumor disappearance): marked tumor regression
- serum alanine transaminase (ALT) versus vehicle [9, 12]: no significant differences
- serum aspartate transaminase (AST) versus vehicle [9, 12]: no significant differences
- hepatotoxicity ([9]; in vivo conditions): no hepatotoxicity
- body weight versus vehicle ([9]; xenografted mice, data not shown): no significant differences
- ATF4 and CHOP level ([10]; Mel270 cells): enhanced
- ER stress pathways (BIP, PERK, EIF2α, ATF4, IRE1α, XBP1, ATF6, CHOP) ([10]; kinetics analysis in Mel270): activates all branches of the ER stress pathways
- cell cycle (reduced CDK4, increased p27 and p21) [11]: cell cycle arrest

Reference: patent US20240122938A1, “METHODS AND COMPOSITIONS FOR TREATING UVEAL MELANOMA” (INSERM (INSTITUT NATIONAL DE LA SANTÉ ET DE LA RECHERCHE …, priority 2019, published 2024)
